{"source": "patent US12479877B2", "about": "“Methods for purifying steviol glycosides and uses of the same” (PureCircle Sdn. Bhd., priority 2010, dated 2025)", "key": {"one experienced panelist": {"test_system": "one experienced panelist", "test": "Taste evaluation of Reb X against Reb A and Reb D, multi-sip and swallow taste method", "format": "in vivo, human", "procedure": "The taste properties of a sample of Reb X were studied against Rebaudioside A (Reb A) and Rebaudioside D (Rb D) samples. Rb A was obtained from Cargill (lot #1040) and Reb-D was obtained from PureCircle (lot #11/3/08).\nThe samples were prepared at 500 ppm for sweetness evaluation by adding moisture compensated mass into a 100 mL sample of carbon-treated water and citric buffer solutions.\n(§1) Citric buffer was prepared by mixing 1.171 g/L citric acid, 0.275 g/L sodium citrate and 0.185 g/L sodium benzoate with carbon-treated water, with a final pH of 3.22. The mixtures were moderately stirred at room temperature. The Reb X sample was then evaluated against the two control Reb A and Reb D samples in water and citric buffer at room temperature (RT) and at 4° C. in an ice bath by one experienced panelist for any tasting quality determinations using the controlled, multi-sip and swallow taste method shown below:\n1. Take first sip (˜1.8 mL) of control and swallow. Wait for 15-25 sec, then take second sip of control and wait for 15-25 sec.\n2. Take first sip of the experimental sample, wait for 15-25 sec, then take second sip. Compare to second sip of control.\n3. Repeat steps #1 and #2 for the third and fourth sips of the control and experimental samples to confirm the initial finding.\nThe taste evaluation results of the Reb X samples against the control Reb A and Reb D samples at 500 ppm in citric buffer (CB) at 4° C. and RT are described in Table 4."}, "[1]": {"test": "Solubility studies in carbon-treated water and citrate buffer", "format": "physicochemical", "procedure": "as §1\nThe samples used to evaluate the taste properties in Example 2 were also used for solubility studies."}, "one experienced taster": {"test_system": "one experienced taster", "test": "Isosweetness determination of Reb X in citric buffer against sucrose controls", "format": "in vivo, human", "details": "for Estimated % Sweetness Equivalence in Citric Buffer at 4° C.: citric buffer pH 3.1, 4° C.; for Estimated % Sweetness Equivalence in Citric Buffer at RT: citric buffer pH 3.1, RT", "procedure": "The isosweetness levels of Reb X in a citric buffer system at room temperature and 4° C. were evaluated. A 600 ppm stock solution of Reb X was prepared by adding a mass of 0.15 g into a 250 mL sample of citric buffer (CB) solution. The mixture was moderately stirred at warmer temperature (up to ca. 52° C.) on a heated stirrer for about 15-20 minutes and then cooled. The citric buffer was prepared by adding 1.6 g citric acid, 0.6 g potassium citrate and 0.253 g sodium benzoate in 1 L of carbon-treated water. The pH of the mixture was 3.1. Seven diluted Reb X solutions at […], 25, 50, 100, 200, 300, 400 and 500 ppm were prepared by adding a 2.08, 4.17, 8.33, 16.67, 25.00, 33.33 and 41.67 mL Reb X stock solution, respectively, into each 50 mL solution of CB. The controls of 0.75%, 2%, 4%, 6%, 8%, 10% and 15% sucrose equivalence (SE) were also prepared by adding sugar (w/v) into the CB. The mixtures were moderately stirred and then ready for the isosweetness determination test. The Reb X samples were then evaluated against the control sugar samples in citric buffer at room temperature (RT) and 4° C. (in an ice bath) by one experienced taster for an isosweetness determination using the controlled, multi-sip and swallow taste method."}, "panel of trained tasters": {"test_system": "panel of trained tasters", "test": "Reb X sweetness vs. concentration, matched to sucrose references", "format": "in vivo, human", "details": "for Reb X Concentration (ppm) matching sucrose reference: Reb X 98% purity, water at room temperature", "procedure": "2.5%, 5.0%, 7.5%, and 10.0% sucrose solutions were prepared in neutral (7.0 pH) and acidified water (3.2 pH) as reference samples. Solutions containing Reb X (98% purity) were prepared to match the sweetness of each sucrose reference in neutral and acidified water. Samples were tasted and verified by a panel of trained tasters in water at room temperature."}, "[2]": {"test_system": "semi-trained panel members", "test": "Sensory comparison of Reb X and Reb A, iso-sweet samples at 8% sucrose equivalent", "format": "in vivo, human", "procedure": "To compare the sensory attributes between Reb X and Reb A, iso-sweet samples having 8% sucrose equivalent sweetness were made with filtered water as shown in Table 8. An 8% sugar solution in water at room temperature was used as a control. An 8% sugar solution in the acidified solution was used as the control. The samples prepared with filtered water were evaluated by 34 semi-trained panel members at room temperature. The samples prepared with acidified water were evaluated by 23 semi-trained panel members at room temperature. Samples were given to the panel members sequentially and coded with triple digit numbers. The order of sample presentation was randomized to avoid order of presentation bias. Water and unsalted crackers were provided in order to cleanse the palate. The panel members were asked to rate different attributes including sweetness onset, total sweetness, rounded sweetness, bitterness, acidity, leafy note, licorice, astringency, mouthfeel, mouth coating, sweet lingering, and bitter lingering. Samples were rated on a scale of zero (0) to ten (10), with zero indicating immediate onset, no intensity, watery/low viscosity, or very sharp peak, and ten indicating very delayed onset, high intensity, thick/high viscosity, or very round peak. One-way single factor ANOVA was used to analyze sensory results, where α=0.05."}, "[3]": {"details": "Sweetness Equivalent (SE) 10.0%"}, "[4]": {"details": "acidified water (250 ppm citric acid, pH 3.2), 23 panel members, FIG. 12"}}}
{"compound": "C=C1C[C@@]23CCC4[C@](C)(C(=O)OC5OC(CO)C(O)C(OC6OC(CO)C(O)C(O)C6O)C5OC5OC(CO)C(O)C(O)C5O)CCC[C@@]4(C)[C@@H]2CCC1(OC1OC(CO)C(O)C(OC2OC(CO)C(O)C(O)C2O)C1OC1OC(CO)C(O)C(O)C1O)C3", "note": "(stereo partly drawn) [Reb X, (13-[2-O-β-D-glucopyranosyl-3-O-β-D-glucopyranosyl-β-D-glucopyranosyl)oxy] ent kaur-16-en-19-oic acid-[2-O-β-D-glucopyranosyl-3-O-β-D-glycopyranosyl) ester]", "values": [{"measurement": "Taste quality at room temperature versus 4° C.", "setting": "one experienced panelist; 500 ppm in citrate buffer", "result": "similar"}, {"measurement": "Taste quality compared with Reb A and Reb D", "setting": "one experienced panelist; 500 ppm in citrate buffer", "result": "much better than Reb A or Reb D"}, {"measurement": "Sweet temporal profile and sweetness linger", "setting": "one experienced panelist; 500 ppm in citrate buffer, compared with Reb A", "result": "fatty-like or broader sweet temporal profile and less sweetness linger than that of Reb A"}, {"measurement": "Taste Properties", "setting": "one experienced panelist; 500 ppm in citric buffer (pH 3.22), room temperature", "result": "Clean sweet taste. Broad and full sweetness profile. Moderate"}, {"measurement": "Astringency, sweetness intense (depth) and bitterness notes", "setting": "one experienced panelist; 500 ppm, citrate buffer system, compared with Reb A", "result": "did not have the astringency or sweetness intense (depth) and bitterness notes compared to that of the Reb A"}, {"measurement": "Estimated time to solubilize", "setting": "[1]; 0.01% in carbon-treated water", "result": 15, "unit": "min"}, {"measurement": "Estimated time to solubilize", "setting": "[1]; 0.01% in citrate buffer", "result": 25, "unit": "min"}, {"measurement": "Estimated time to solubilize", "setting": "[1]; 0.02% in carbon-treated water", "result": 25, "unit": "min"}, {"measurement": "Estimated time to solubilize", "setting": "[1]; 0.02% in citrate buffer", "result": 25, "unit": "min"}, {"measurement": "Estimated time to solubilize", "setting": "[1]; 0.04% in carbon-treated water", "result": 33, "unit": "min"}, {"measurement": "Estimated time to solubilize", "setting": "[1]; 0.04% in citrate buffer", "result": 35, "unit": "min"}, {"measurement": "Estimated time to solubilize", "setting": "[1]; 0.05% in carbon-treated water", "result": 39, "unit": "min"}, {"measurement": "Estimated time to solubilize", "setting": "[1]; 0.05% in citrate buffer", "result": 42, "unit": "min"}, {"measurement": "Estimated time to solubilize", "setting": "[1]; 0.075% in carbon-treated water", "result": 55, "unit": "min"}, {"measurement": "Estimated time to solubilize", "setting": "[1]; 0.075% in citrate buffer", "result": 55, "unit": "min"}, {"measurement": "Estimated time to solubilize", "setting": "[1]; 0.10% in carbon-treated water", "result": 106, "unit": "min"}, {"measurement": "Estimated time to solubilize", "setting": "[1]; 0.10% in citrate buffer", "result": 106, "unit": "min"}, {"measurement": "Estimated time to solubilize", "setting": "[1]; 0.15% in carbon-treated water", "result": "Insoluble after 20 hours"}, {"measurement": "Estimated time to solubilize", "setting": "[1]; 0.15% in citrate buffer", "result": "Insoluble after 20 hours"}, {"measurement": "Initial solubility test (comparative)", "setting": "[1]; 500 ppm concentrations in citrate buffer", "result": "significantly greater solubility than that of Reb D and significantly less solubility than Reb A"}, {"measurement": "Estimated % Sweetness Equivalence in Citric Buffer at 4° C.", "setting": "one experienced taster; Reb X 12.5 ppm", "result": 0.75, "unit": "%"}, {"measurement": "Estimated % Sweetness Equivalence in Citric Buffer at RT", "setting": "one experienced taster; Reb X 12.5 ppm", "result": 0.5, "unit": "%"}, {"measurement": "Estimated % Sweetness Equivalence in Citric Buffer at 4° C.", "setting": "one experienced taster; Reb X 25 ppm", "result": 1.5, "unit": "%"}, {"measurement": "Estimated % Sweetness Equivalence in Citric Buffer at RT", "setting": "one experienced taster; Reb X 25 ppm", "result": "1.0-1.5%"}, {"measurement": "Estimated % Sweetness Equivalence in Citric Buffer at 4° C.", "setting": "one experienced taster; Reb X 50 ppm", "result": "3.0-3.5%"}, {"measurement": "Estimated % Sweetness Equivalence in Citric Buffer at RT", "setting": "one experienced taster; Reb X 50 ppm", "result": "3.25-3.75%"}, {"measurement": "Estimated % Sweetness Equivalence in Citric Buffer at 4° C.", "setting": "one experienced taster; Reb X 100 ppm", "result": 5.5, "unit": "%"}, {"measurement": "Estimated % Sweetness Equivalence in Citric Buffer at RT", "setting": "one experienced taster; Reb X 100 ppm", "result": 5.0, "unit": "%"}, {"measurement": "Estimated % Sweetness Equivalence in Citric Buffer at 4° C.", "setting": "one experienced taster; Reb X 200 ppm", "result": 8.0, "unit": "%"}, {"measurement": "Estimated % Sweetness Equivalence in Citric Buffer at RT", "setting": "one experienced taster; Reb X 200 ppm", "result": 8.0, "unit": "%"}, {"measurement": "Estimated % Sweetness Equivalence in Citric Buffer at 4° C.", "setting": "one experienced taster; Reb X 300 ppm", "result": "11.0-12.0%"}, {"measurement": "Estimated % Sweetness Equivalence in Citric Buffer at RT", "setting": "one experienced taster; Reb X 300 ppm", "result": 12.0, "unit": "%"}, {"measurement": "Estimated % Sweetness Equivalence in Citric Buffer at 4° C.", "setting": "one experienced taster; Reb X 400 ppm", "result": "14.0-14.5%"}, {"measurement": "Estimated % Sweetness Equivalence in Citric Buffer at RT", "setting": "one experienced taster; Reb X 400 ppm", "result": "14.0-14.5%"}, {"measurement": "Estimated % Sweetness Equivalence in Citric Buffer at 4° C.", "setting": "one experienced taster; Reb X 500 ppm", "result": "15.5-16.0%"}, {"measurement": "Estimated % Sweetness Equivalence in Citric Buffer at RT", "setting": "one experienced taster; Reb X 500 ppm", "result": "15.5-16.0%"}, {"measurement": "Estimated % Sweetness Equivalence in Citric Buffer at 4° C.", "setting": "one experienced taster; Reb X 600 ppm", "result": "16.5-17.0%"}, {"measurement": "Estimated % Sweetness Equivalence in Citric Buffer at RT", "setting": "one experienced taster; Reb X 600 ppm", "result": "16.5-17.0%"}, {"measurement": "Sweetness intensity difference between RT and 4° C.", "setting": "one experienced taster; Reb X concentration range, direct comparison with control sucrose at similar temperatures", "result": "no significant sweetness intensity difference"}, {"measurement": "Sweetness tasting quality", "setting": "one experienced taster; all concentrations (12.5-600 ppm) in citric buffer", "result": "pleasant sweetness tasting quality with a slight delay of sweetness onset and no bitterness"}, {"measurement": "Off-flavors", "setting": "one experienced taster; any Reb X concentrations in CB at 4° C., except at least ca. 300 ppm", "result": "No off-flavors"}, {"measurement": "Sweetness lingering", "setting": "one experienced taster; at least ca. 300 ppm Reb X in CB at 4° C.", "result": "longer sweetness lingering"}, {"measurement": "Sweetness Factor (SF)", "setting": "panel of trained tasters; Sweetness Equivalent (SE) 2.5%", "result": 521}, {"measurement": "Reb X Concentration (ppm) matching sucrose reference", "setting": "panel of trained tasters; Sweetness Equivalent (SE) 2.5%", "result": 48, "unit": "ppm"}, {"measurement": "Sweetness Factor (SF)", "setting": "panel of trained tasters; Sweetness Equivalent (SE) 5.0%", "result": 380}, {"measurement": "Reb X Concentration (ppm) matching sucrose reference", "setting": "panel of trained tasters; Sweetness Equivalent (SE) 5.0%", "result": 132, "unit": "ppm"}, {"measurement": "Sweetness Factor (SF)", "setting": "panel of trained tasters; Sweetness Equivalent (SE) 7.5%", "result": 295}, {"measurement": "Reb X Concentration (ppm) matching sucrose reference", "setting": "panel of trained tasters; Sweetness Equivalent (SE) 7.5%", "result": 254, "unit": "ppm"}, {"measurement": "Sweetness Factor (SF)", "setting": "panel of trained tasters; [3]", "result": 237}, {"measurement": "Reb X Concentration (ppm) matching sucrose reference", "setting": "panel of trained tasters; [3]", "result": 422, "unit": "ppm"}, {"measurement": "Perceived sweetness compared to Reb A", "setting": "[2]; [4]", "result": "higher sweetness of Reb X over Reb A is significant"}, {"measurement": "Sweetness onset, non-sweet taste and bitterness lingering compared to Reb A", "setting": "[2]; [4]", "result": "faster sweetness onset, reduced non-sweet taste (bitterness, sour, astringency) and bitterness lingering"}, {"measurement": "Bitterness, astringency and bitter lingering compared to Reb A", "setting": "[2]; filtered water, room temperature, 34 panel members, FIG. 11", "result": "reduced perception of bitterness, astringency and bitter lingering compared to Reb A"}]}
